# Data: US6509341B1, “Carboxylic acid derivatives, carrying amido side-chains; production and use as endothelin receptor antagonists” (Abbott Laboratories, priority 1997, dated 2003)
# What was measured:
# [1] = molecular target: T1, human ETA receptor (Homo sapiens, UniProt P25101); assay: ETA receptor binding assay ([125I]-ET1, CHO cell membranes); settings: cloned human ETA receptor, 25 pM [125I]-ET1, 25° C.
# T1 construct: expressed in transfected cells; host or cells: CHO cells (membrane preparation)
# T1 sequence (P25101 21-427): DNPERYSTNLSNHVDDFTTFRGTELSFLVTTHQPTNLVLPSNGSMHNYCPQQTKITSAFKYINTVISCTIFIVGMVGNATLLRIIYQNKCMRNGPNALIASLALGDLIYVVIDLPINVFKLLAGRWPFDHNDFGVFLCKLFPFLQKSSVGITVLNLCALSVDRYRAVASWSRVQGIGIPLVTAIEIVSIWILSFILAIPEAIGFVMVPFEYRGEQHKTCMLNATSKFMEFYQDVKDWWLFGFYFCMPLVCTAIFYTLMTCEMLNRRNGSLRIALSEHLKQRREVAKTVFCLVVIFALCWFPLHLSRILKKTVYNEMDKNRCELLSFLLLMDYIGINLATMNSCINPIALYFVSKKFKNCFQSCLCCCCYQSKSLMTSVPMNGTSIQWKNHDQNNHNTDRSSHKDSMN
# Method: (§1) Cloned human ETA or ETB receptor-expressing CHO cells were employed for binding studies.
# (§2) The ETA or ETB receptor-expressing CHO cells were grown in DmeM NUT MIX F12-medium (Gibco, No. 21331-020) with 10% fetal calf serum (PAA Laboratories GmbH, Linz, No. A15-022), 1 mM glutamine (Gibco No. 25030-024), 100 U/ml penicillin and 100 μg/ml streptomycin (Gibco [sic], Sigma No. P-0781). After 48 hours, the cells were washed with PBS and incubated with 0.05% trypsin-containing PBS at 37° C. for 5 minutes. This was followed by neutralization with medium, and the cells were collected by centrifugation at 300×g.
# (§3) For the membrane preparation, the cells were adjusted to a concentration of 10^8 cells/ml of buffer (50 mM tris.HCL [sic] buffer, pH 7.4) and then disintegrated by ultrasound Branson Sonifier 250, 40-70 seconds/constant/output [sic] 20).
# (§4) For the ETA and ETB receptor binding assay, the membranes were suspended in incubation buffer (50 mM tris-HCl, pH 7.4 with 5 mM MnCl2, 40 mg/ml Bacitracin and 0.2% BSA) in a concentration of 50 μg of protein per assay mixture and incubated with 25 pM [125I]-ET1 [sic] (ETA receptor assay) or 25 pM [125I]-ET3 [sic] (ETB receptor assay) at 25° C. in the presence and absence of test substance. The nonspecific binding was determined with 10^−7 M ET1. After 30 min, filtration through GF/B glass fiber filters (Whatman, England) in a Skatron cell harvester (Skatron, Lier, Norway) was carried out to separate free and bound radioligand, and the filters was washed with ice-cold tris-HCl buffer, pH 7.4 with 0.2% BSA. The radioactivity collected on the filters was quantified using a Packard 2200 CA liquid scintillation counter.
# (§5) Receptor binding data were measured by the binding assay described above for the compounds listed below.
# [2] = molecular target: T2, human ETB receptor (Homo sapiens, UniProt P24530); assay: ETB receptor binding assay ([125I]-ET3, CHO cell membranes); settings: cloned human ETB receptor, 25 pM [125I]-ET3, 25° C.
# T2 construct: expressed in transfected cells; host or cells: CHO cells (membrane preparation)
# T2 sequence (P24530 27-442): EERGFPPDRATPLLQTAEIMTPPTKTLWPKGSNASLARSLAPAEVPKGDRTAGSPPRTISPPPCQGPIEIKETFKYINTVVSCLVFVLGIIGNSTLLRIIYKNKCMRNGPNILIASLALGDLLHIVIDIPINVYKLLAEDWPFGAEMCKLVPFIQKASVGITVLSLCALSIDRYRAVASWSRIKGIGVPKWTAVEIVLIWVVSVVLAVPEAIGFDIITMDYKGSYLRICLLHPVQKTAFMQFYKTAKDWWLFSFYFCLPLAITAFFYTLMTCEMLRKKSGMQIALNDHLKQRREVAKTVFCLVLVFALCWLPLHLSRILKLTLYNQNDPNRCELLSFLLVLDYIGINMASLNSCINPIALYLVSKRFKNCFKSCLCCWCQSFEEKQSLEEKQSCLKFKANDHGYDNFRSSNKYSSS
# Method: as §1, §2, §3, §4, §5
SMILES,Ki [1],Ki [2],melting point
"Cc1cc(C)nc(OC(C(=O)O)C(OCC(=O)N(C)c2ccccc2)(c2ccccc2)c2ccccc2)n1 (centres unmarked) [Compound I-109, 2-(4,6-Dimethyl-2-pyrimidinyloxy)-3-(N-methyl-N-phenylcarbamoylmethoxy)-3,3-diphenylpropionic acid]",0.4 nM,142 nM,
"COc1cc2c(cc1OC)CN(C(=O)COC(c1ccccc1)(c1ccccc1)C(Oc1nc(C)cc(C)n1)C(=O)O)CC2 (centres unmarked) [Example 34, 2-(4,6-Dimethylpyrimidin-2-yloxy)-3-(2-oxo-2-(6,7-dimethoxy-1,2,3,4-tetrahydroisoquinolin-2-yl)ethoxy)-3,3-diphenylpropionic acid]",,,145 to 148 °C
"Cc1cc(C)nc(OC(C(=O)O)C(OCC(=O)N2CCc3ccccc3C2)(c2ccccc2)c2ccccc2)n1 (centres unmarked) [Compound I-307, 2-(4,6-Dimethyl-2-pyrimidinyloxy)-3-(2-oxo-2-(1,2,3,4-tetrahydroisoquinolin-2-yl)ethoxy)-3,3-diphenylpropionic acid]",1.6 nM,10 nM,
"Cc1cc(C)nc(OC(C(=O)O)C(OCC(=O)N2Cc3ccccc3C(C)(C)C2)(c2ccccc2)c2ccccc2)n1 (centres unmarked) [Example 35, 2-(4,6-Dimethylpyrimidin-2-yloxy)-3-(2-oxo-2-(4,4-dimethyl-1,2,3,4-tetrahydroisoquinolin-2-yl)ethoxy)-3,3-diphenylpropionic acid]",,,185 to 187 °C

# Second part, the compound after the results:
Ki [1],Ki [2],melting point,SMILES
3.8 nM,155 nM,,"CCCCN(CCCC)C(=O)COC(c1ccccc1)(c1ccccc1)C(Oc1nc(C)cc(C)n1)C(=O)O (centres unmarked) [Compound I-347, 2-(4,6-Dimethyl-2-pyrimidinyloxy)-3-(N,N-dibutylcarbamoylmethoxy)-3,3-diphenylpropionic acid]"
3 nM,142 nM,,"CCCCN(CCCC)C(=O)COC(c1ccccc1)(c1ccccc1)C(Oc1nc(C)cc(OC)n1)C(=O)O (centres unmarked) [Compound I-349, 2-(4-Methyl-6-methoxy-2-pyrimidinyloxy)-3-(N,N-dibutylcarbamoylmethoxy)-3,3-diphenylpropionic acid]"
1 nM,12 nM,,"COc1cc(C)nc(OC(C(=O)O)C(OCC(=O)N2CCc3ccccc3C2)(c2ccccc2)c2ccccc2)n1 (centres unmarked) [Compound I-309, 2-(4-Methyl-6-methoxy-2-pyrimidinyloxy)-3-(2-oxo-2-(1,2,3,4-tetrahydroisoquinolin-2-yl)ethoxy)-3,3-diphenylpropionic acid]"
0.3 nM,109 nM,,"COc1cc(C)nc(OC(C(=O)O)C(OCC(=O)N(C)c2ccccc2)(c2ccccc2)c2ccccc2)n1 (centres unmarked) [Compound I-111, 2-(4-methyl-6-methoxy-2-pyrimidinyloxy)-3-(N-methyl-N-phenylcarbamoylmethoxy)-3,3-diphenylpropionic acid]"
